Data: publication PMC7082314 (Frontiers in Cellular and Infection Microbiology, 2020)

Target: BfpR-His6 (Francisella tularensis, UniProt A0Q7V5)
Conditions: 5 uM protein (printed 'Five micrometers'), 2X SYPRO Orange; heated to 95 °C

BfpR-His6, sequence (A0Q7V5 1-229): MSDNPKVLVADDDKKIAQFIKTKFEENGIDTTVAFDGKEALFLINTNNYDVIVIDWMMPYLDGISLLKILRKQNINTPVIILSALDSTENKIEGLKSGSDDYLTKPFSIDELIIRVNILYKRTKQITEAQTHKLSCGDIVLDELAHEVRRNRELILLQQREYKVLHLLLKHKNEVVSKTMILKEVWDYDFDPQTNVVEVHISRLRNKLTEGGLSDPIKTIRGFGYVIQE

COc1ccc(O)c2ccccc12 [walrycin A, 4-methoxy-1-naphthol]
thermal shift: a protein population not seen in the presence of the control compounds appears
